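Following 48 hours of exposure in 96-well plates, responses at five concentrations were used to interpolate endpoints linearly. The concentration for 50% growth inhibition is given as GI50.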 The source made the active and inactive calls. Cut-off read from the data, not from the text of the source: active = GI50 up to about 1.1 µM and inactive = higher.
What was measured:
Assay in all cases: DTP human tumour cell line panel, 48 h
KM12 = tested on: KM12
TK-10 = tested on: TK-10
HOP-18 = tested on: HOP-18
SK-MEL-28 = tested on: SK-MEL-28
NCI-H522 = tested on: NCI-H522
NCI-H23 = tested on: NCI-H23
A549 = tested on: A549
SK-OV-3 = tested on: SK-OV-3
HOP-62 = tested on: HOP-62
OVCAR-5 = tested on: OVCAR-5
UO-31 = tested on: UO-31
LOX IMVI = tested on: LOX IMVI
786-0 = tested on: 786-0
ACHN = tested on: ACHN
MCF7 = tested on: MCF7
Hs-578T = tested on: Hs-578T
BT-549 = tested on: BT-549
NCI/ADR-RES = tested on: NCI/ADR-RES
MDA-N = tested on: MDA-N
T47D = tested on: T47D

SMILES	GI50 (KM12)	GI50 (TK-10)	GI50 (HOP-18)	GI50 (SK-MEL-28)	GI50 (NCI-H522)	GI50 (NCI-H23)	GI50 (A549)	GI50 (SK-OV-3)	GI50 (HOP-62)	GI50 (OVCAR-5)	GI50 (UO-31)	GI50 (LOX IMVI)	GI50 (786-0)	GI50 (ACHN)	GI50 (MCF7)	GI50 (Hs-578T)	GI50 (BT-549)	GI50 (NCI/ADR-RES)	GI50 (MDA-N)	GI50 (T47D)
Cc1c(C(=O)/C=C/c2ccc([N+](=O)[O-])cc2)[n+]([O-])c2ccccc2[n+]1[O-]	93.5 µM (inactive)	> 100 µM (inactive)	> 100 µM (inactive)	> 100 µM (inactive)	20.5 µM (inactive)	28.2 µM (inactive)	> 100 µM (inactive)	> 100 µM (inactive)	> 100 µM (inactive)	> 100 µM (inactive)	> 100 µM (inactive)	42.3 µM (inactive)	52.1 µM (inactive)	> 100 µM (inactive)	–	–	–	–	–	–
COC(=O)[C@@]1(C)/C(=N/NS(=O)(=O)c2ccc(C)cc2)CCC[C@@H]1C	> 100 µM (inactive)	> 100 µM (inactive)	> 100 µM (inactive)	> 100 µM (inactive)	41.8 µM (inactive)	> 100 µM (inactive)	> 100 µM (inactive)	> 100 µM (inactive)	> 100 µM (inactive)	> 100 µM (inactive)	> 100 µM (inactive)	14.3 µM (inactive)	> 100 µM (inactive)	> 100 µM (inactive)	–	–	–	–	–	–
NCCCCNc1ccc2c(=O)[nH][nH]c(=O)c2c1	> 100 µM (inactive)	> 100 µM (inactive)	> 100 µM (inactive)	> 100 µM (inactive)	> 100 µM (inactive)	> 100 µM (inactive)	> 100 µM (inactive)	> 100 µM (inactive)	> 100 µM (inactive)	> 100 µM (inactive)	> 100 µM (inactive)	> 100 µM (inactive)	> 100 µM (inactive)	> 100 µM (inactive)	–	–	–	–	–	–
CN1C(=O)CC2(C)c3cc(O)ccc3N(C)C12 (stereo unspecified)	31.3 µM (inactive)	> 90.4 µM (inactive)	> 100 µM (inactive)	50.7 µM (inactive)	43.3 µM (inactive)	42.3 µM (inactive)	> 68.5 µM (inactive)	> 95.3 µM (inactive)	41 µM (inactive)	42.5 µM (inactive)	> 71.8 µM (inactive)	17.1 µM (inactive)	15 µM (inactive)	63.2 µM (inactive)	18.6 µM (inactive)	> 48.9 µM (inactive)	16.9 µM (inactive)	39.4 µM (inactive)	17.6 µM (inactive)	31.8 µM (inactive)
CC[C@@]1(O)C(=O)OCc2c1cc1n(c2=O)Cc2cc3cc4c(cc3nc2-1)OCO4	–	0.502 µM (active)	0.0429 µM (active)	0.0188 µM (active)	0.00133 µM (active)	0.00114 µM (active)	0.00144 µM (active)	0.002 µM (active)	< 0.001 µM (active)	0.0111 µM (active)	0.00116 µM (active)	0.00135 µM (active)	< 0.001 µM (active)	< 0.001 µM (active)	0.01 µM (active)	0.244 µM (active)	0.0118 µM (active)	0.00175 µM (active)	–	0.0104 µM (active)
Nc1cc2[nH]cnc2c(=O)[nH]1 [DEZAGUANINE]	51.6 µM (inactive)	13.9 µM (inactive)	> 121 µM (inactive)	40.6 µM (inactive)	14.8 µM (inactive)	31.6 µM (inactive)	24.5 µM (inactive)	5.12 µM (inactive)	18.3 µM (inactive)	45.5 µM (inactive)	32.3 µM (inactive)	10.5 µM (inactive)	19.4 µM (inactive)	8.87 µM (inactive)	21.9 µM (inactive)	> 196 µM (inactive)	> 123 µM (inactive)	50.9 µM (inactive)	15.5 µM (inactive)	89.1 µM (inactive)
O=C1C=CC(=O)C2=C1[C@@H](O)C1CC=CC3C(=O)O[C@@H]2C31 (stereo partly specified)	19.8 µM (inactive)	28.2 µM (inactive)	29.4 µM (inactive)	> 45.8 µM (inactive)	15.5 µM (inactive)	27 µM (inactive)	> 52.7 µM (inactive)	> 100 µM (inactive)	> 100 µM (inactive)	74.3 µM (inactive)	43.1 µM (inactive)	20.6 µM (inactive)	26.2 µM (inactive)	36.5 µM (inactive)	–	–	–	–	–	–
CCc1nc(N)nc(C(=O)NCCNC(=O)c2nc(N)nc(CC)c2C)c1C	> 100 µM (inactive)	> 100 µM (inactive)	> 100 µM (inactive)	> 100 µM (inactive)	–	> 100 µM (inactive)	> 100 µM (inactive)	–	> 100 µM (inactive)	> 100 µM (inactive)	> 100 µM (inactive)	> 100 µM (inactive)	> 100 µM (inactive)	> 100 µM (inactive)	–	–	–	–	–	–
COc1ccc2nc(NC(=O)C(=O)C(C#N)c3ccc([N+](=O)[O-])cc3)sc2c1 (stereo unspecified)	> 100 µM (inactive)	> 100 µM (inactive)	99.8 µM (inactive)	> 100 µM (inactive)	55.5 µM (inactive)	> 100 µM (inactive)	> 100 µM (inactive)	> 100 µM (inactive)	> 100 µM (inactive)	> 100 µM (inactive)	11.2 µM (inactive)	> 100 µM (inactive)	> 100 µM (inactive)	> 100 µM (inactive)	–	–	–	–	–	–
CC(CCC(=O)O)c1ccc(Br)cc1 (stereo unspecified)	> 100 µM (inactive)	> 100 µM (inactive)	> 100 µM (inactive)	> 100 µM (inactive)	> 100 µM (inactive)	> 100 µM (inactive)	> 100 µM (inactive)	> 100 µM (inactive)	> 100 µM (inactive)	> 100 µM (inactive)	> 100 µM (inactive)	> 100 µM (inactive)	> 100 µM (inactive)	> 100 µM (inactive)	–	–	–	–	–	–
CC(C)C(Nc1c2ccccc2[n+](C)c2ccccc12)C(=O)O (stereo unspecified)	> 100 µM (inactive)	> 100 µM (inactive)	> 100 µM (inactive)	–	1.3 µM (inactive)	> 100 µM (inactive)	> 100 µM (inactive)	> 100 µM (inactive)	> 100 µM (inactive)	> 100 µM (inactive)	> 100 µM (inactive)	–	> 100 µM (inactive)	> 100 µM (inactive)	–	–	–	–	–	–
NC(=S)N1N=C2c3ccccc3CC[C@H]2[C@@H]1c1cccs1	26.6 µM (inactive)	64.6 µM (inactive)	21.1 µM (inactive)	44.3 µM (inactive)	16.8 µM (inactive)	24.6 µM (inactive)	30.1 µM (inactive)	37.7 µM (inactive)	33.3 µM (inactive)	> 100 µM (inactive)	27.5 µM (inactive)	66.5 µM (inactive)	43.9 µM (inactive)	49.2 µM (inactive)	–	–	–	–	–	–
O=C(CN1CCOCC1)Nc1nc(-c2ccc(Cl)cc2)cs1	19.5 µM (inactive)	34.4 µM (inactive)	38.5 µM (inactive)	25.6 µM (inactive)	–	15.1 µM (inactive)	24.4 µM (inactive)	65.3 µM (inactive)	22.6 µM (inactive)	89.7 µM (inactive)	20.3 µM (inactive)	22.2 µM (inactive)	60.3 µM (inactive)	25.1 µM (inactive)	–	–	–	–	–	–
CC(=O)c1ccccc1NC(=O)C(=O)C(C(=O)c1ccc2ccccc2c1)C1OC(=O)c2ccccc21 (stereo unspecified)	18.3 µM (inactive)	34 µM (inactive)	14.5 µM (inactive)	11.3 µM (inactive)	10.7 µM (inactive)	6.49 µM (inactive)	19.3 µM (inactive)	29.2 µM (inactive)	10.7 µM (inactive)	22.2 µM (inactive)	13.3 µM (inactive)	7.71 µM (inactive)	6.61 µM (inactive)	31.8 µM (inactive)	–	–	–	–	–	–
CCCC[C@H](CCc1ccccc1)N(C(=O)OC)N1CCC[C@H]1COC	18.8 µM (inactive)	26.4 µM (inactive)	27.2 µM (inactive)	19.9 µM (inactive)	14.1 µM (inactive)	17.2 µM (inactive)	24.8 µM (inactive)	24.1 µM (inactive)	23 µM (inactive)	17.8 µM (inactive)	16.7 µM (inactive)	18.3 µM (inactive)	21.4 µM (inactive)	16.8 µM (inactive)	–	–	–	–	–	–
CCCc1nc(N)nc(C(=O)Nc2cccc(C(F)(F)F)c2)c1CC	> 100 µM (inactive)	> 100 µM (inactive)	> 100 µM (inactive)	> 100 µM (inactive)	–	> 100 µM (inactive)	> 100 µM (inactive)	–	> 100 µM (inactive)	> 100 µM (inactive)	> 100 µM (inactive)	> 100 µM (inactive)	> 100 µM (inactive)	> 100 µM (inactive)	–	–	–	–	–	–
CCCCC(N)CSSCC(N)CCCC (stereo unspecified)	49.2 µM (inactive)	> 100 µM (inactive)	> 100 µM (inactive)	17.7 µM (inactive)	15 µM (inactive)	24.8 µM (inactive)	52 µM (inactive)	57.1 µM (inactive)	27.3 µM (inactive)	20.5 µM (inactive)	21.4 µM (inactive)	17.6 µM (inactive)	17.9 µM (inactive)	34.4 µM (inactive)	–	–	–	–	–	–
COc1cc2c(c(OC)c1OC)[C@@H]1CCCCC[C@@H]1CCC2=O	99.1 µM (inactive)	> 100 µM (inactive)	> 100 µM (inactive)	> 100 µM (inactive)	> 66.7 µM (inactive)	> 100 µM (inactive)	> 100 µM (inactive)	> 100 µM (inactive)	> 100 µM (inactive)	> 100 µM (inactive)	> 100 µM (inactive)	17.7 µM (inactive)	> 71.3 µM (inactive)	> 100 µM (inactive)	–	–	–	–	–	–
